According to the CheMixHub ionic liquid set:

Test: xn = mol fraction of the nth substance listed

CC[n+]1ccn(C)c1.O=C([O-])C(F)(F)F + OCC(O)CO
100 kPa
Conditions | electrical conductivity, 298.15 K [S/m] | electrical conductivity, 313.15 K [S/m] | viscosity, 293.15 K [mPa·s] | viscosity, 298.15 K [mPa·s] | viscosity, 303.15 K [mPa·s] | viscosity, 313.15 K [mPa·s]
x1 = 0.002 | 0.000383 | 0.0012 | 1382 | 893 | 592 | 280.8
x1 = 0.004 | 0.00069 | 0.00217 | – | – | – | –
x1 = 0.013 | 0.00211 | 0.0066 | 1264 | 818 | 544 | 259.8
x2 = 0.202 | 0.81 | 1.37 | 47 | 38.2 | 31.3 | 22
x2 = 0.3 | 0.71 | 1.23 | 58 | 46.3 | 37.5 | 25.7
x2 = 0.399 | 0.57 | 1.02 | 65.5 | 51.5 | 41.1 | 27.5
x2 = 0.5 | 0.436 | 0.84 | 86 | 66.1 | 51.7 | 33.4
x2 = 0.6 | 0.305 | 0.63 | 115.9 | 86.6 | 66.1 | 40.8
x2 = 0.7 | 0.184 | 0.411 | 177.8 | 128.2 | 94.6 | 55
x2 = 0.8 | 0.08 | 0.199 | 316 | 218.7 | 155.2 | 84.1
x2 = 0.9 | 0.023 | 0.065 | 639 | 427 | 291.2 | 146.8
x2 = 0.956 | 0.0076 | 0.0231 | 983 | 643 | 432 | 210
x2 = 0.979 | 0.00328 | 0.0103 | 1188 | 772 | 514 | 246.5

CCCCCCCCCCCCCCCC[n+]1ccccc1.O=C([O-])C(O)c1ccccc1 + CC(C)[C@H](N)C(=O)O + O
electrical conductivity [S/m], 101 kPa
Conditions | 293.15 K | 298.15 K | 303.15 K | 308.15 K | 313.15 K
x1 = 9.1e-07, x2 = 0.0009002 | 0.00089 | 0.00101 | 0.0011 | 0.0013 | 0.0014
x1 = 9.1e-07, x2 = 0.001799 | 0.00133 | 0.00151 | 0.0017 | 0.0019 | 0.0021
x1 = 1.08e-06, x2 = 0 | 0.00061 | 0.00068 | 0.00076 | 0.00083 | 0.0009
x1 = 1.98e-06, x2 = 0 | 0.001 | 0.0012 | 0.0013 | 0.0014 | 0.0016
x1 = 2e-06, x2 = 0.001799 | 0.00178 | 0.00203 | 0.0023 | 0.0025 | 0.0028
x1 = 2.17e-06, x2 = 0.0009002 | 0.0013 | 0.0015 | 0.0017 | 0.0019 | 0.0021
x1 = 2.88e-06, x2 = 0 | 0.00147 | 0.0016 | 0.0018 | 0.002 | 0.0022
x1 = 3.09e-06, x2 = 0.001799 | 0.00218 | 0.0025 | 0.0028 | 0.0031 | 0.0034
x1 = 3.26e-06, x2 = 0.0009002 | 0.00176 | 0.002 | 0.0022 | 0.0025 | 0.0028
x1 = 3.96e-06, x2 = 0 | 0.0019 | 0.0022 | 0.0024 | 0.0026 | 0.0029
x1 = 4e-06, x2 = 0.001799 | 0.00257 | 0.0029 | 0.0032 | 0.0036 | 0.004
x1 = 4.53e-06, x2 = 0.0009002 | 0.00226 | 0.00256 | 0.0029 | 0.0032 | 0.0035
x1 = 4.69e-06, x2 = 0 | 0.0023 | 0.0026 | 0.0029 | 0.0031 | 0.0035
x1 = 5.1e-06, x2 = 0.001799 | 0.00299 | 0.0034 | 0.0038 | 0.0042 | 0.0046
x1 = 5.95e-06, x2 = 0 | 0.00281 | 0.0032 | 0.0035 | 0.0038 | 0.0042
x1 = 5.98e-06, x2 = 0.0009002 | 0.00283 | 0.0032 | 0.0036 | 0.004 | 0.0044
x1 = 6.37e-06, x2 = 0.001799 | 0.00351 | 0.004 | 0.0044 | 0.0049 | 0.0055
x1 = 7.21e-06, x2 = 0 | 0.00341 | 0.0038 | 0.0042 | 0.0046 | 0.0051
x1 = 7.42e-06, x2 = 0.0009002 | 0.00334 | 0.00378 | 0.0042 | 0.0047 | 0.0051
x1 = 7.83e-06, x2 = 0.001799 | 0.00405 | 0.00458 | 0.0051 | 0.0057 | 0.0063
x1 = 8.83e-06, x2 = 0 | 0.00406 | 0.0046 | 0.005 | 0.0055 | 0.006
x1 = 8.87e-06, x2 = 0.0009002 | 0.00384 | 0.00435 | 0.0049 | 0.0054 | 0.006
x1 = 9.28e-06, x2 = 0.001799 | 0.00457 | 0.00517 | 0.0058 | 0.0064 | 0.0072
x1 = 1.032e-05, x2 = 0.0009002 | 0.00431 | 0.00487 | 0.0054 | 0.0061 | 0.0067
x1 = 1.045e-05, x2 = 0 | 0.00469 | 0.0053 | 0.0058 | 0.0065 | 0.0071
x1 = 1.074e-05, x2 = 0.001799 | 0.00499 | 0.00564 | 0.0063 | 0.0071 | 0.0079
x1 = 1.177e-05, x2 = 0.0009002 | 0.00466 | 0.00529 | 0.0059 | 0.0066 | 0.0074
x1 = 1.201e-05, x2 = 0.001799 | 0.00536 | 0.00607 | 0.0068 | 0.0076 | 0.0085
x1 = 1.207e-05, x2 = 0 | 0.00516 | 0.0058 | 0.0064 | 0.0071 | 0.0079
x1 = 1.322e-05, x2 = 0.0009002 | 0.00502 | 0.00569 | 0.0064 | 0.0071 | 0.0079
x1 = 1.347e-05, x2 = 0.001799 | 0.00572 | 0.00647 | 0.0073 | 0.0081 | 0.009
x1 = 1.351e-05, x2 = 0 | 0.00562 | 0.00631 | 0.007 | 0.0077 | 0.0085
x1 = 1.431e-05, x2 = 0.0009002 | 0.00533 | 0.00604 | 0.00678 | 0.0076 | 0.0084
x1 = 1.474e-05, x2 = 0.001799 | 0.00607 | 0.00687 | 0.0077 | 0.0086 | 0.0096
x1 = 1.478e-05, x2 = 0 | 0.00603 | 0.0068 | 0.0075 | 0.0083 | 0.0092
x1 = 1.557e-05, x2 = 0.0009002 | 0.00565 | 0.0064 | 0.00717 | 0.008 | 0.0089
x1 = 1.583e-05, x2 = 0.001799 | 0.00637 | 0.0072 | 0.0081 | 0.009 | 0.01
x1 = 1.622e-05, x2 = 0 | 0.00644 | 0.0072 | 0.008 | 0.0089 | 0.0098
x1 = 1.666e-05, x2 = 0.0009002 | 0.006 | 0.00675 | 0.0076 | 0.0084 | 0.0094
x1 = 1.766e-05, x2 = 0 | 0.00687 | 0.0077 | 0.0085 | 0.0094 | 0.0104
